For 47 compounds, IC50 results are on record in patent US11884627B2, “Compounds and compositions for treating conditions associated with LPA receptor activity” (Lhotse Bio, Inc., priority 2022, dated 2024).

Read-outs that look alike come from different tables or passages of the source. Some results are limits rather than exact numbers.

This assay deals with T1, human LPA1 (Homo sapiens, UniProt Q92633).
T1 construct: expressed in transfected cells; host or cells: CHO-K1
As to the kind of experiment: In vitro LPA1 calcium flux antagonist assay - Bioduro protocol. In kind it is cell-based. The conditions noted are these: CHO-K1 cells overexpressing human LPA1 and G15a, LPA challenge at EC80. Put shortly:
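Calcium mobilization read on FLIPR after EC80 LPA was added to compound-pretreated (30 min) CHO-K1 cells co-expressing human LPA1 and G15a. Cells were starved 4 h and dye-loaded with Fluo-8 AM/2.5 mM probenecid in HBSS-Hepes; inhibition normalized between DMSO and LPA-control RFU.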
In general terms: Calcium assays in cells follow changes in intracellular calcium, usually with a dye or a luminescent sensor.

The mark [1] stands for this setting: calcium mobilization on FLIPR Tetra, read-out: IC50.
Where [2] appears, read: Table B3, read-out: Activity (IC50 class).

By IC50 is commonly meant the midpoint of a concentration-inhibition curve.

T1 sequence (Q92633 whole entry): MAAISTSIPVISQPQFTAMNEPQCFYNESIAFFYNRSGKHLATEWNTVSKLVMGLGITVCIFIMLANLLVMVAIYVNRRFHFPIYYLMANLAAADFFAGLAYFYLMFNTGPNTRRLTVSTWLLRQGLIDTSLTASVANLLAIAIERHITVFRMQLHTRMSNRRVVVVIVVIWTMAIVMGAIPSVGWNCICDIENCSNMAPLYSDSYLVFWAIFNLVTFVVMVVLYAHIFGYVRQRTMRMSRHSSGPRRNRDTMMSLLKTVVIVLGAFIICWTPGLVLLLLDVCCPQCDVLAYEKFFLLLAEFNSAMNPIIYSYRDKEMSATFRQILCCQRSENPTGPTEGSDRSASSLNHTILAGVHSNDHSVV

Regarding `COc1cc(-c2ccc(C3(C(=O)O)CCOCC3)cc2COC2CCCC2)cc(OC)c1C` [Compound 234], the IC50 under setting [1] was 5190 nM and the half-inhibitory concentration (IC50) under setting [2] was over 1000 nM.

Take `COc1cc(-c2ccc(C3(C(=O)O)CCOCC3)cc2COC2CCCC2)c(Cl)c(OC)c1C` [Compound 235]: the IC50 is 198 nM under setting [1] and 100 to 1000 nM under setting [2].

`COc1cc(-c2ccc(CC3(C(=O)O)CCOCC3)cc2COC2CCCC2)c(Cl)c(OC)c1C` [Compound 236]: the IC50 under setting [1] worked out at 4710 nM and the IC50 under setting [2] was over 1000 nM.

`COc1cc(-c2ccc(N(C)C3(C(=O)O)CCOCC3)cc2COC2CCCC2)c(F)c(OC)c1C` [Compound 239]: the IC50 under setting [1] came out at 970 nM and the IC50 under setting [2] was 100 to 1000 nM.

As for `COc1cc(-c2ccc(NC3(C(=O)O)CCOCC3)cc2COC2CCCC2)c(F)c(C2CC2)c1` [Compound 240], the IC50 is 23.4 nM under setting [1] and under 100 nM under setting [2].

Take `COc1cc(-c2cc(F)c(NC3(C(=O)O)CCOCC3)cc2COC2CCCC2)c(F)c(OC)c1C` [Compound 243]: the IC50 runs as follows: under setting [1], 82.9 nM; under setting [2], 100 to 1000 nM.

`CCOc1cccc(-c2ccc(NC3(C(=O)O)CCOCC3)cc2COC2CCCC2)c1C(F)F` [Compound 244]: the IC50 is 2.73 nM under setting [1] and under 100 nM under setting [2].

In the case of `CCOc1cccc(-c2ccc(NC3(C(=O)O)CCOCC3)cc2COC2CCCC2)c1F` [Compound 245, 4-((2-((cyclopentyloxy)methyl)-3′-ethoxy-2′-fluoro-[1,1′-biphenyl]-4-yl)amino)tetrahydro-2H-pyran-4-carboxylic acid], the IC50 by setting is: under setting [1], 23.2 nM; under setting [2], under 100 nM.

In the case of `CCOc1cc(OC)cc(-c2ccc(OC3(C(=O)O)CCOCC3)cc2COC2CCCC2)c1F` [Compound 246], the IC50 by setting is: under setting [1], 24.3 nM; under setting [2], under 100 nM.

Consider `COc1cc(-c2ccc(OC3(C(=O)O)CCOCC3)cc2CO[C@@H]2CCOC2)c(F)c(OC)c1C` [Compound 247], for which the IC50 by setting is: under setting [1], 1610 nM; under setting [2], over 1000 nM.

Regarding `COc1cc(OC2CC2)c(F)c(-c2ccc(NC3(C(=O)O)CCOCC3)cc2COC2CCCC2)c1` [Compound 249, 4-((2-((cyclopentyloxy)methyl)-3′-cyclopropoxy-2′-fluoro-5′-methoxy-[1,1′-biphenyl]-4-yl)amino)tetrahydro-2H-pyran-4-carboxylic acid], the IC50 is 1.13 nM under setting [1] and under 100 nM under setting [2].

Turning to `COc1cc(OC2CC2)cc(-c2ccc(NC3(C(=O)O)CCOCC3)cc2COC2CCCC2)c1F` [Compound 250], the IC50 was 31.7 nM under setting [1] and under 100 nM under setting [2].

As for `COc1cc(C2CC2)cc(-c2ccc(NC3(C(=O)O)CCOCC3)cc2COC2CCCC2)c1F` [Compound 251], the IC50 by setting is: under setting [1], 40.2 nM; under setting [2], under 100 nM.

For the compound `COc1cc(-c2c(C)cc(NC3(C(=O)O)CCOCC3)cc2COC2CCCC2)nc(OC)c1C` [Compound 253, 4-((3-((cyclopentyloxy)methyl)-4-(4,6-dimethoxy-5-methylpyridin-2-yl)-5-methylphenyl)amino)tetrahydro-2H-pyran-4-carboxylic acid], the IC50 by setting is: under setting [1], 54.3 nM; under setting [2], under 100 nM.

As to `COc1cc(OC)c(Cl)c(-c2ccc(NC3(C(=O)O)CCOCC3)cc2COC2CCCC2)c1` [Compound 257], the IC50 by setting is: under setting [1], 8.41 nM; under setting [2], under 100 nM.

In the case of `COc1cc(-c2ccc(OC3(C(=O)O)CCOCC3)cc2CCC2CCOC2)c(F)c(OC)c1C` (stereo not shown) [Compound 260], the IC50 under setting [1] was determined as 174 nM and the IC50 under setting [2] was 100 to 1000 nM.

Turning to `COc1cc(-c2ccc(NC3(C(=O)O)CCOCC3)cc2COC2CCCC2)c(Cl)c(OC)c1F` [Compound 261], the IC50 is 51.9 nM under setting [1] and under 100 nM under setting [2].

As for `COc1cc(-c2ccc(NC3(C(=O)O)CCOCC3)cc2COC2CCCC2)c(Cl)c(OC)c1C#N` [Compound 262], the IC50 by setting is: under setting [1], 30.8 nM; under setting [2], under 100 nM.

`COc1cc(-c2ccc(NC3(C(=O)O)CCOCC3)cc2COC2CCC2)c(F)c(OC)c1C` [Compound 263]: the IC50 reads like this: under setting [1], 60.4 nM; under setting [2], under 100 nM.

On to `CCOc1cccc(-c2ccc(NC3(C(=O)O)CCOCC3)cc2COC2CCCC2)c1Cl` [Compound 264], for which the IC50 under setting [1] turned out to be 5.42 nM and the 50% inhibitory concentration (IC50) under setting [2] was under 100 nM.

As to `O=C(O)C1(Nc2ccc(-c3cccc(OC4CC4)c3F)c(COC3CCCC3)c2)CCOCC1` [Compound 265, 4-((2-((cyclopentyloxy)methyl)-3′-cyclopropoxy-2′-fluoro-[1,1′-biphenyl]-4-yl)amino)tetrahydro-2H-pyran-4-carboxylic acid], the 50% inhibitory concentration (IC50) is 12 nM under setting [1] and under 100 nM under setting [2].

`CCOc1c(F)ccc(-c2ccc(NC3(C(=O)O)CCOCC3)cc2COC2CCCC2)c1F` [Compound 266]: the half-inhibitory concentration (IC50) is, setting by setting: under setting [1], 142 nM; under setting [2], 100 to 1000 nM.

As for `CCOc1cccc(-c2ccc(NC3(C(=O)O)CCOCC3)cc2CCC2CCOC2)c1F` (stereo not shown) [Compound 267], the IC50 under setting [1] came to 68 nM and the IC50 under setting [2] is under 100 nM.

In the case of `COc1c(C)c(OC)c(F)c(-c2ccc(NC3(C(=O)O)CCOCC3)cc2COC2CCCC2)c1F` [Compound 270], the IC50 runs as follows: under setting [1], 79.8 nM; under setting [2], under 100 nM.

On to `COc1cc(-c2ccc(NC3(C(=O)O)CCOCC3)cc2COC2CCCC2)c(F)c(OC)c1C(C)=O` [Compound 271], for which the IC50 runs as follows: under setting [1], 21.4 nM; under setting [2], under 100 nM.

Turning to `CCOc1cccc(-c2ccc(NC3(C(=O)O)CCOCC3)cc2CCC2CCCC2)c1F` [Compound 272], the IC50 runs as follows: under setting [1], 6.96 nM; under setting [2], under 100 nM.

Regarding `COc1cc(-c2c(COC3CCCC3)cc(NC3(C(=O)O)CCOCC3)cc2C(F)F)cc(OC)c1C` [Compound 273], the IC50 runs as follows: under setting [1], 17.1 nM; under setting [2], under 100 nM.

On to `COc1cc(-c2ccc(NC3(C(=O)O)CCOCC3)cc2COC2CCCC2)cc(OC)c1C(F)F` [Compound 274], for which the IC50 runs as follows: under setting [1], 28 nM; under setting [2], under 100 nM.

Regarding `COc1cc(-c2c(COC3CCCC3)cc(NC3(C(=O)O)CCOCC3)cc2C(F)(F)F)cc(OC)c1C` [Compound 275], the 50% inhibitory concentration (IC50) was 229 nM under setting [1] and 100 to 1000 nM under setting [2].

On to `COc1cc(-c2ccc(NC3(C(=O)O)CCOCC3)cc2COC2CCCCC2)c(F)c(OC)c1C` [Compound 276], for which the IC50 is, setting by setting: under setting [1], 25.4 nM; under setting [2], under 100 nM.

Regarding `CC(C)COc1cccc(-c2ccc(NC3(C(=O)O)CCOCC3)cc2COC2CCCC2)c1F` [Compound 277], the IC50 is 72.7 nM under setting [1] and under 100 nM under setting [2].

`CCNc1cccc(-c2ccc(NC3(C(=O)O)CCOCC3)cc2COC2CCCC2)c1F` [Compound 278, 4-((2-((cyclopentyloxy)methyl)-3′-(ethylamino)-2′-fluoro-[1,1′-biphenyl]-4-yl)amino)tetrahydro-2H-pyran-4-carboxylic acid]: the IC50 is, setting by setting: under setting [1], 36.6 nM; under setting [2], under 100 nM.

Take `CCOc1cccc(-c2ccc(NC3(C(=O)O)CCOCC3)cc2COC2CC2)c1C(F)F` [Compound 279, 4-((2-(cyclopropoxymethyl)-2′-(difluoromethyl)-3′-ethoxy-[1,1′-biphenyl]-4-yl)amino)tetrahydro-2H-pyran-4-carboxylic acid]: the IC50 runs as follows: under setting [1], 4.19 nM; under setting [2], under 100 nM.

As for `COc1cc(-c2ccc(OC3(C(=O)O)CCOCC3)cc2CO[C@H]2CCOC2)c(F)c(OC)c1C` [Compound 281], the 50% inhibitory concentration (IC50) is 110 nM under setting [1] and 100 to 1000 nM under setting [2].

Consider `CCCc1cccc(-c2ccc(NC3(C(=O)O)CCOCC3)cc2COC2CCCC2)c1F` [Compound 286], for which the IC50 by setting is: under setting [1], 9.87 nM; under setting [2], under 100 nM.

Consider `CCOc1cc(OC)cc(-c2ccc(NC3(C(=O)O)CCOCC3)cc2COC2CCCC2)c1F` [Compound 287], for which the IC50 reads like this: under setting [1], 2.46 nM; under setting [2], under 100 nM.

As for `CCOc1cc(OC)cc(-c2ccc(NC3(C(=O)O)CCOCC3)cc2COC2CC2)c1F` [Compound 288], the IC50 by setting is: under setting [1], 11.9 nM; under setting [2], under 100 nM.

Regarding `O=C(O)C1(Nc2ccc(-c3cccc(OC4CC4)c3F)c(COC3CC3)c2)CCOCC1` [Compound 289], the IC50 reads like this: under setting [1], 51 nM; under setting [2], under 100 nM.

With `COc1cc(OC2CC2)c(F)c(-c2ccc(NC3(C(=O)O)CCOCC3)cc2COC2CC2)c1` [Compound 290], the IC50 under setting [1] worked out at 15.8 nM and the IC50 under setting [2] is under 100 nM.

Regarding `O=C(O)C1(Nc2ccc(-c3cccc(OC4CCC4)c3F)c(COC3CC3)c2)CCOCC1` [Compound 291], the 50% inhibitory concentration (IC50) runs as follows: under setting [1], 173 nM; under setting [2], under 100 nM.

Consider `COc1cc(OC)c(F)c(-c2ccc(NC3(C(=O)O)CCOCC3)cc2COC2CC2)c1` [Compound 292], for which the IC50 by setting is: under setting [1], 117 nM; under setting [2], 100 to 1000 nM.

For `COc1cc(-c2ccc(NC3(C(=O)O)CCOCC3)cc2COC2CC2)c(Cl)c(OC)c1C` [Compound 293], the IC50 is, setting by setting: under setting [1], 5.72 nM; under setting [2], under 100 nM.

As to `CCOc1cccc(-c2ccc(NC3(C(=O)O)CCOCC3)cc2CCC2CC2)c1C(F)F` [Compound 296], the IC50 by setting is: under setting [1], 2.4 nM; under setting [2], under 100 nM.

On to `CCOc1cc(OC)c(F)c(-c2ccc(NC3(C(=O)O)CCOCC3)cc2COC2CCCC2)c1` [Compound 297], for which the half-maximal inhibitory concentration (IC50) by setting is: under setting [1], 137 nM; under setting [2], 100 to 1000 nM.

Regarding `COc1cc(-c2ccc(NC3(C(=O)O)CCOCC3)cc2COC2CCCC2)c(F)c(OC)c1C(C)O` (stereo not shown) [Compound 299], the IC50 under setting [1] came to 38.4 nM and the half-inhibitory concentration (IC50) under setting [2] is under 100 nM.

With `COc1cc(-c2ccc(NC3(C(=O)O)CCOCC3)cc2COC2CCCC2)c(F)c(OC)c1C(C)O` (stereo not shown) [Compound 300], the IC50 runs as follows: under setting [1], 35.3 nM; under setting [2], under 100 nM.

For `O=C(O)C1(Nc2ccc(-c3cccc(OC4CC4)c3C(F)F)c(COC3CCCC3)c2)CC1` [Compound 301], the IC50 is 12.5 nM under setting [1] and under 100 nM under setting [2].
